Reference: BindingDB's records for doi:10.7270/Q2736PBV (Broad Institute, 2009)
pEC50: −log10 of the molar value.

Biological target: T1, Streptokinase A (Streptococcus pyogenes serotype M1, UniProt P10520)
T1 sequence (P10520 whole entry): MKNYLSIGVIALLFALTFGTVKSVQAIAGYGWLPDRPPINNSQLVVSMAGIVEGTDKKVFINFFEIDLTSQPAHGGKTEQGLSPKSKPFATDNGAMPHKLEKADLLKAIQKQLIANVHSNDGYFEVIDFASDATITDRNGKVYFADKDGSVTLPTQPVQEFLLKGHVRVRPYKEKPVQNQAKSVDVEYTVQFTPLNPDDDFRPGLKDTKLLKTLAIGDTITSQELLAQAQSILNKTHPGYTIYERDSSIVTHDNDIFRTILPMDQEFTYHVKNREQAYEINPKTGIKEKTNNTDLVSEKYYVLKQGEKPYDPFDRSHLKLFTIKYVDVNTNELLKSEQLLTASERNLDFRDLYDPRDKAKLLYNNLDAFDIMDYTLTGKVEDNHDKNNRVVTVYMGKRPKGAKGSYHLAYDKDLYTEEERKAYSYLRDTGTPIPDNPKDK
Assay: viability-normalized secreted streptokinase activity reduction – plasminogen activation absorbance, OD405, dose response (AID 1914)

SMILES	pEC50
COC(=O)C1C(C)=NC2=C(C(=O)c3ccccc32)C1c1ccc(-c2ccc(C(=O)O)cc2)o1 (configuration not stated) [4-{5-[3-(methoxycarbonyl)-2-methyl-5-oxo-4,5-dihydro-1H-indeno[1,2-b]pyridin-4-yl]-2-furyl}benzoic acid]	< 3.82
CCOc1cc(CN=Nc2cc(C)nc(-n3nc(C)cc3C)n2)ccc1O [4-{[2-(3,5-Dimethyl-pyrazol-1-yl)-6-methyl-pyrimidin-4-yl]-hydrazonomethyl}-2-ethoxy-phenol]	< 3.82
CC1(C)CC(=O)C(C2C3=C(CC(C)(C)CC3=O)Oc3c(Br)cc(Br)cc32)C(=O)C1 (configuration not stated) [5,7-bis(bromanyl)-9-(4,4-dimethyl-2-oxidanyl-6-oxidanylidene-cyclohexen-1-yl)-3,3-dimethyl-4,9-dihydro-2H-xanthen-1-one]	4.61
Cc1ccsc1C1CC(c2cccc(Br)c2)=Nc2ncnn21 (configuration not stated) [5-(3-bromophenyl)-7-(3-methylthien-2-yl)-4,7-dihydro[1,2,4]triazolo[1,5-a]pyrimidine]	< 3.82
Oc1nc(N=NCc2cccs2)sc1Cc1ccc(Cl)c(Cl)c1 [5-[(3,4-dichlorophenyl)methyl]-2-[2-(thiophen-2-ylmethylidene)hydrazinyl]-4-thiazolone]	< 3.82
Oc1ccccc1CN=Nc1nc(O)c(Cc2ccc(F)cc2)s1 [5-[(4-fluorophenyl)methyl]-2-[2-[(E)-(6-oxidanylidenecyclohexa-2,4-dien-1-ylidene)methyl]hydrazinyl]-1,3-thiazol-4-one]	< 3.82
CCc1ccc2c(c1)=C(NNc1nc(-c3ccccc3)cs1)C(=O)N=2 [5-ethyl-1H-indole-2,3-dione 3-[(4-phenyl-1,3-thiazol-2(3H)-ylidene)hydrazone]]	< 3.82
COc1cc(CN=Nc2nc(Nc3ccccc3)nc(-n3nc(C)cc3C)n2)cc(OC)c1OC [6-(3,5-dimethylpyrazol-1-yl)-N4-phenyl-N2-[(3,4,5-trimethoxyphenyl)methylideneamino]-1,3,5-triazine-2,4-diamine]	< 3.82
COc1ccc(OC)c(C2CC(C34CC5CC(CC(C5)C3)C4)=NC(=S)N2)c1 (configuration not stated) [6-Adamantan-1-yl-4-(2,5-dimethoxy-phenyl)-3,4-dihydro-1H-pyrimidine-2-thione]	4.83
CCOc1cccc(CN=Nc2ccc(S(=O)(=O)N(CC)CC)cn2)c1O [6-[2-[(E)-(5-ethoxy-6-oxidanylidene-cyclohexa-2,4-dien-1-ylidene)methyl]hydrazinyl]-N,N-diethyl-pyridine-3-sulfonamide]	< 3.82
O=Nc1c(C2C(=O)Nc3cc(Br)ccc32)[nH]c2ccccc12 (configuration not stated) [6-bromoindirubin-3-oxime]	4.35
CC(N=Nc1nc2ccc(Cl)cc2o1)c1ccccc1 (configuration not stated) [6-chloranyl-N-(1-phenylethylideneamino)-1,3-benzoxazol-2-amine]	< 3.82
O=c1ccc2[n+]([O-])c3ccccc3n(O)c-2c1 [10-hydroxy-5-oxidophenazin-5-ium-2-one]	< 3.82
CC(N=Nc1nc(N2CCCCCC2)nc(N2CCCCCC2)n1)c1ccccc1 (configuration not stated) [(1E)-1-phenylethanone (4,6-diazepan-1-yl-1,3,5-triazin-2-yl)hydrazone]	5.26
CC(=O)c1cccc2c1NC(=C1Nc3ccccc3C1=O)C2=O [(2E)-7-ethanoyl-2-(3-oxidanylidene-1H-indol-2-ylidene)-1H-indol-3-one]	3.93
CCOC(=O)C1=C(Cc2ccc(CC)cc2)C(=O)c2ccccc2C1=O [(2E,3Z)-2-[ethoxy(hydroxy)methylidene]-3-[(4-ethylphenyl)methylidene]naphthalene-1,4-dione]	< 3.82

SMILES	pEC50
Cc1ccc(SCC(=O)C(C#N)c2nc3ccccc3s2)cc1 (configuration not stated) [(2Z)-2-(3H-1,3-benzothiazol-2-ylidene)-3-keto-4-(p-tolylthio)butyronitrile]	< 3.82
N#CC(C(=O)COc1ccccc1)c1nc2ccccc2s1 (configuration not stated) [(2Z)-2-(3H-1,3-benzothiazol-2-ylidene)-3-keto-4-phenoxy-butyronitrile]	5.12
N#CC(C(=O)CN1CCN(c2ccccc2F)CC1)c1nc(-c2ccccc2)cs1 (configuration not stated) [(2Z)-4-[4-(2-fluorophenyl)piperazin-1-yl]-3-oxidanylidene-2-(4-phenyl-3H-1,3-thiazol-2-ylidene)butanenitrile]	< 3.82
Cc1nc(N=NCc2ccc3c(c2)OCO3)sc1C [(4,5-dimethylthiazol-2-yl)-(piperonylideneamino)amine]	< 3.82
COc1ccc(C(=O)Oc2ccc(C(C)=O)cc2)c(OC)c1 [(4-acetylphenyl) 2,4-dimethoxybenzoate]	< 3.82
Cc1cc(N=NCc2ccc(O)c(C)c2O)nc(-c2ccccc2O)n1 [(4E)-3-hydroxy-2-methyl-4-[[[(2Z)-6-methyl-2-(6-oxo-1-cyclohexa-2,4-dienylidene)-1H-pyrimidin-4-yl]hydrazo]methylidene]-1-cyclohexa-2,5-dienone]	< 3.82
Oc1ccc(CN=Nc2ccc3ccccc3c2)c(O)c1 [(4E)-3-hydroxy-4-[(2-naphthalenylhydrazo)methylidene]-1-cyclohexa-2,5-dienone]	< 3.82
N=C(N)C1=CC(=O)/C(=C/C=c2ccc(=C(N)N)cc2)C=C1 [(4E)-4-[2-[4-[bis(azanyl)methylidene]cyclohexa-2,5-dien-1-ylidene]ethylidene]-3-oxidanylidene-cyclohexa-1,5-diene-1-carboximidamide;2-oxidanylethanesulfonic acid]	4.70
COc1ccc(C2=N/C(=C\c3c(C)[nH]c4ccccc34)C(=O)O2)cc1 [(4Z)-2-(4-methoxyphenyl)-4-[(2-methyl-1H-indol-3-yl)methylidene]-1,3-oxazol-5-one]	< 3.82
CCCOc1ccc(C(=O)C2C(=O)C(=O)N(c3ccccn3)C2c2ccc(OC)cc2)cc1C (configuration not stated) [(4Z)-4-[hydroxy-(3-methyl-4-propoxyphenyl)methylidene]-5-(4-methoxyphenyl)-1-(2-pyridinyl)pyrrolidine-2,3-dione]	3.99
C=CCN1C(=O)NC(=O)C(=C(CC)Nc2ccc(N(C)C)cc2)C1=O [(5E)-5-[1-[4-(dimethylamino)anilino]propylidene]-1-prop-2-enyl-1,3-diazinane-2,4,6-trione]	< 3.82
O=C1N=C(Nc2ccc(F)cc2)SC1=Cc1c[nH]c2ccccc12 [(5Z)-2-[(4-fluorophenyl)amino]-5-(1H-indol-3-ylmethylidene)-1,3-thiazol-4-one]	< 3.82
O=[N+]([O-])c1cc(Br)c(O)c(CN=Nc2nnnn2-c2cccc3ccccc23)c1 [(6E)-2-bromo-6-[[2-(1-naphthalen-1-yltetrazol-5-yl)hydrazinyl]methylidene]-4-nitrocyclohexa-2,4-dien-1-one]	< 3.82
COc1cccc(N=NCc2cccc(Br)c2O)c1 [(6E)-2-bromo-6-[[2-(3-methoxyphenyl)hydrazinyl]methylidene]cyclohexa-2,4-dien-1-one]	4.71
COc1cccc(CN=Nc2cc(N3CCOCC3)ncn2)c1O [(6E)-2-methoxy-6-[[N'-(6-morpholinopyrimidin-4-yl)hydrazino]methylene]cyclohexa-2,4-dien-1-one]	< 3.82
CCOc1ccc(CN=Nc2cc(N3CCOCC3)nc(C)n2)c(O)c1 [(6E)-3-ethoxy-6-[[2-(2-methyl-6-morpholin-4-yl-pyrimidin-4-yl)hydrazinyl]methylidene]cyclohexa-2,4-dien-1-one]	< 3.82
